The record followed here is patent US10189786B2, “Antibacterial compounds” (Duke University, priority 2013, dated 2019).

Structures are written as SMILES. ≈ marks a conversion by molar mass, not a printed value.

Type in all cases: cell-based
Experiment [1] concerns N. gonorrhoeae F89 (high-level cefixime and ceftriaxone resistance). The experiment is described as follows: Disk diffusion assay, N. gonorrhoeae F89. As to conditions: disc 6 mm; for zone of inhibition at 0.2 µg/disc / zone of inhibition at 2 µg/disc / zone of inhibition at 20 µg/disc: Neisseria gonorrhoeae, read-out: diameter of the growth inhibition, F89. The procedure:
(§1) An assay was performed on two strains of Acinetobacter Baumannii: antibiotic susceptible strain (Sus. A.b. Isolate), and multidrug-resistant strains (MDR A.b. Isolate). […] Activity is measured as the diameter (in mm) of the growth inhibition.

The subject of a further experiment is E. coli W3110. Briefly: microbe, parasite or virus in culture. As to conditions: wild-type E. coli W3110, 22 hours at 37° C., MTT; for MIC: Escherichia coli, W3110, 22 h.
The subject of a further experiment is P. aeruginosa PAO1. Briefly: MIC assay, P. aeruginosa PAO1. As to conditions: for MIC: Pseudomonas aeruginosa.
Experiment [2] relates to N. gonorrhoeae FA19 (a drug-sensitive strain). The experiment is described as follows: Disk diffusion assay, N. gonorrhoeae FA19. The note with it: disc 6 mm; for zone of inhibition at 2 µg/disc / zone of inhibition at 20 µg/disc / zone of inhibition at 0.2 µg/disc: Neisseria gonorrhoeae, read-out: diameter of the growth inhibition, FA19. The procedure:
as §1

The subject of another experiment is E. coli W3110PA. Briefly: microbe, parasite or virus in culture. The note with it: E. coli with native lpxC replaced by that of P. aeruginosa; for MIC E. coli W3110PA: unit from b306; for MIC: Escherichia coli, W3110PA.
The subject of the next experiment is N. gonorrhoeae H041. Briefly: Disk diffusion assay, N. gonorrhoeae H041. As to conditions: disc 6 mm; for zone of inhibition at 0.2 µg/disc / zone of inhibition at 2 µg/disc / zone of inhibition at 20 µg/disc: Neisseria gonorrhoeae, read-out: diameter of the growth inhibition, H041; for zone of inhibition at 0.2 µg/disc: H041, 0.2 μg per disc; for zone of inhibition at 2 µg/disc: H041, 2.0 μg per disc; for zone of inhibition at 20 µg/disc: H041, 20 μg per disc. On the procedure:
as §1

In experiment [3] the test system is N. gonorrhoeae 35/02 (drug-resistant strain). Briefly: Disk diffusion assay, N. gonorrhoeae 35/02. As to conditions: disc 6 mm; for zone of inhibition at 0.2 µg/disc / zone of inhibition at 2 µg/disc / zone of inhibition at 20 µg/disc: Neisseria gonorrhoeae, read-out: diameter of the growth inhibition, 35/02. On the procedure: as §1
(In general: Agar diffusion results depend on both activity and mobility in agar.)

Experiment [4] concerns F. novicida U112 (FNU112). The experiment is described as follows: microbe, parasite or virus in culture. As to conditions: Francisella tularensis, read-out: MIC FNU112.
The mark [5] stands for this setting: 0.2 μg per disc, listed as 3 (Isomer B).

On to `CC(CCc1ccc(-c2ccccc2)cc1)(C(=O)NO)C(C)(O)C(F)F` (single isomer, unassigned) [Example 3 Isomer A, 2-(2-(biphenyl-4-yl)ethyl)-4,4-difluoro-N,3-dihydroxy-2,3-dimethylbutanamide], for which the zone of inhibition at 0.2 µg/disc in experiment [1] (0.2 μg per disc) amounted to 18 mm; with N. gonorrhoeae H041, 9 mm; in experiment [3] (0.2 μg per disc) it was 0 mm. The zone of inhibition at 2 µg/disc in experiment [1] (2.0 μg per disc) stood at 27 mm; in experiment [2] (2.0 μg per disc) it was 20 mm; in the experiment with N. gonorrhoeae H041, 16 mm; in experiment [3] (2.0 μg per disc), 13 mm. The zone of inhibition at 20 µg/disc turned out to be 33 mm in experiment [1] (20 μg per disc), 30 mm in experiment [2] (20 μg per disc), 24 mm in the experiment with N. gonorrhoeae H041 and 19 mm in experiment [3] (20 μg per disc). The molecule also returned an MIC in the experiment on E. coli W3110 of 50 µg/mL (≈ 138 µM). Moreover, the “MIC P. aeruginosa PAO1” value in the experiment on P. aeruginosa PAO1 (P. aeruginosa PAO1, unit from b306, listed as 3 Isomer A) is 6.3 µg/mL (≈ 17.3 µM). Moreover, the “diameter of the growth inhibition, FA19” value in experiment [2] (0.2 μg per disc, listed as 3 (Isomer A)) was 11 mm. Further, the “MIC E. coli W3110PA” value against E. coli W3110PA (listed as 3 Isomer A) was 3.1 µg/mL (≈ 8.53 µM).
On to `CC(CCc1ccc(-c2ccccc2)cc1)(C(=O)NO)C(C)(O)C(F)F` (single isomer, unassigned) [Example 3 Isomer B, 2-(2-(biphenyl-4-yl)ethyl)-4,4-difluoro-N,3-dihydroxy-2,3-dimethylbutanamide], for which the results for the “diameter of the growth inhibition, F89” value in experiment [1] (setting [5]), in experiment [1] (2.0 μg per disc) and in experiment [1] (20 μg per disc) were 10 mm, 20 mm and 27 mm, respectively. The “MIC E. coli W3110” value in the experiment on E. coli W3110 was greater than 50 µg/mL. Besides, the “MIC P. aeruginosa PAO1” value in the experiment on P. aeruginosa PAO1 (P. aeruginosa PAO1, unit from b306, listed as 3 Isomer B) is 25 µg/mL (≈ 68.8 µM). The “diameter of the growth inhibition, FA19” value in experiment [2] (setting [5]) was 0 mm; in experiment [2] (2.0 μg per disc), 15 mm; in experiment [2] (20 μg per disc) it was 23 mm. Also, the “MIC E. coli W3110PA” value in the experiment on E. coli W3110PA (listed as 3 Isomer B) came to 25 µg/mL (≈ 68.8 µM). In addition, the “diameter of the growth inhibition, H041” value with N. gonorrhoeae H041 (setting [5]) was 8 mm; in the experiment on N. gonorrhoeae H041 (2.0 μg per disc), 10 mm; with N. gonorrhoeae H041 (20 μg per disc) it was 20 mm. Also, the “diameter of the growth inhibition, 35/02” value is reported as 8 mm in experiment [3] (2.0 μg per disc) and 19 mm in experiment [3] (20 μg per disc).
For `CC(NCCCc1ccc(-c2ccccc2)cc1)(C(=O)NO)C(C)(O)C(F)F.Cl` (single isomer, unassigned) [Example 134], the “diameter of the growth inhibition, F89” value in experiment [1] (0.2 μg per disc) stood at 21 mm; in experiment [1] (2.0 μg per disc), 28 mm; in experiment [1] (20 μg per disc), 36 mm. Moreover, the “MIC E. coli W3110” value against E. coli W3110 was 1.25 µg/mL. In addition, the “MIC P. aeruginosa PAO1” value in the experiment on P. aeruginosa PAO1 (P. aeruginosa PAO1) worked out at 2.5 µg/mL. Besides, the “diameter of the growth inhibition, FA19” value in experiment [2] (0.2 μg per disc) stood at 14 mm; in experiment [2] (2.0 μg per disc), 24 mm; in experiment [2] (20 μg per disc), 30 mm. The entries for the “diameter of the growth inhibition, H041” value in the experiment on N. gonorrhoeae H041 (0.2 μg per disc), in the experiment with N. gonorrhoeae H041 (2.0 μg per disc) and in the experiment with N. gonorrhoeae H041 (20 μg per disc) were 14 mm, 21 mm and 26 mm, respectively. Moreover, the “diameter of the growth inhibition, 35/02” value in experiment [3] (0.2 μg per disc) is 12 mm; in experiment [3] (2.0 μg per disc) it was 23 mm; in experiment [3] (20 μg per disc), 28 mm.
Consider `CC(NCCCc1ccc(-c2ccccc2)cc1)(C(=O)NO)C(C)(O)C(F)F.Cl` (single isomer, unassigned) [Example 135], for which the results for the “diameter of the growth inhibition, F89” value in experiment [1] (0.2 μg per disc), in experiment [1] (2.0 μg per disc) and in experiment [1] (20 μg per disc) were 15 mm, 27 mm and 30 mm, respectively. Further, the “MIC E. coli W3110” value against E. coli W3110 was 10 µg/mL. The “MIC P. aeruginosa PAO1” value against P. aeruginosa PAO1 (P. aeruginosa PAO1) worked out at 20 µg/mL. The “diameter of the growth inhibition, FA19” value is recorded as 8 mm in experiment [2] (0.2 μg per disc), 19 mm in experiment [2] (2.0 μg per disc) and 26 mm in experiment [2] (20 μg per disc). The “diameter of the growth inhibition, H041” value is on record as 8 mm in the experiment on N. gonorrhoeae H041 (0.2 μg per disc), 14 mm in the experiment with N. gonorrhoeae H041 (2.0 μg per disc) and 23 mm in the experiment with N. gonorrhoeae H041 (20 μg per disc). The “diameter of the growth inhibition, 35/02” value in experiment [3] (0.2 μg per disc) is on record as 8 mm; in experiment [3] (2.0 μg per disc), 14 mm; in experiment [3] (20 μg per disc), 19 mm.
With `CC(C)(O)C(C)(CCc1ccc(-c2ccccc2)cc1)C(=O)NO` (stereo not shown) [Example 2, 2-(2-(biphenyl-4-yl)ethyl)-N,3-dihydroxy-2,3-dimethylbutanamide], the MIC against E. coli W3110 was greater than 50 µg/mL; with P. aeruginosa PAO1 (PAO1, P. aeruginosa PAO1), 25 µg/mL (≈ 76.4 µM); in the experiment on E. coli W3110PA, 25 µg/mL (≈ 76.4 µM).
For the molecule `CC(CCn1ccc(-c2ccc(-n3nccn3)cc2)cc1=O)(C(=O)NO)C(C)(O)C(F)F` (stereo not shown) [Example 4, 2-(2-(4-(4-(2H-1,2,3-triazol-2-yl)phenyl)-2-oxopyridin-1 (2H)-yl)ethyl)-4,4-difluoro-N,3-dihydroxy-2,3-dimethylbutanamide], the zone of inhibition at 0.2 µg/disc in experiment [1] (0.2 μg per disc) was determined as 7 mm; in experiment [2] (0.2 μg per disc), 0 mm; in the experiment with N. gonorrhoeae H041 it was 7 mm; in experiment [3] (0.2 μg per disc) it was 0 mm. For the same molecule, the zone of inhibition at 2 µg/disc was determined as 15 mm in experiment [1] (2.0 μg per disc), 8 mm in experiment [2] (2.0 μg per disc), 10 mm in the experiment with N. gonorrhoeae H041 and 11 mm in experiment [3] (2.0 μg per disc). The zone of inhibition at 20 µg/disc in experiment [1] (20 μg per disc) amounted to 26 mm; in experiment [2] (20 μg per disc), 19 mm; in the experiment on N. gonorrhoeae H041, 16 mm; in experiment [3] (20 μg per disc), 16 mm. For the same molecule, the MIC was found to be 3.12 µg/mL (≈ 6.97 µM) with E. coli W3110 and 3.13 µg/mL (≈ 7 µM) in the experiment with E. coli W3110PA.
Turning to `C[C@@](O)(C(F)F)[C@H](NCc1ccc(-c2ccccc2)cc1)C(=O)NO` [Example 5, (2S,3S)-2-(biphenyl-4-ylmethylamino)-4,4-difluoro-N,3-dihydroxy-3-methylbutanamide], the zone of inhibition at 0.2 µg/disc is 8 mm in experiment [1] (0.2 μg per disc), 0 mm in experiment [2] (0.2 μg per disc), 7 mm in the experiment with N. gonorrhoeae H041 and 0 mm in experiment [3] (0.2 μg per disc). Moreover, the zone of inhibition at 2 µg/disc was 27 mm in experiment [1] (2.0 μg per disc), 25 mm in experiment [2] (2.0 μg per disc), 17 mm in the experiment with N. gonorrhoeae H041 and 16 mm in experiment [3] (2.0 μg per disc). Also, the zone of inhibition at 20 µg/disc amounted to 36 mm in experiment [1] (20 μg per disc), 29 mm in experiment [2] (20 μg per disc), 25 mm in the experiment on N. gonorrhoeae H041 and 24 mm in experiment [3] (20 μg per disc). Further, the MIC worked out at 25 µg/mL (≈ 71.4 µM) with E. coli W3110; 3.1 µg/mL (≈ 8.85 µM) in the experiment on P. aeruginosa PAO1 (PAO1, P. aeruginosa PAO1); 3.1 µg/mL (≈ 8.85 µM) against E. coli W3110PA.
With `CC(NCc1ccc(-c2ccccc2)cc1)(C(=O)NO)C(C)(O)C(F)F` (stereo not shown) [Example 6, 2-(biphenyl-4-ylmethylamino)-4,4-difluoro-N,3-dihydroxy-2,3-dimethylbutanamide], the MIC against E. coli W3110 was greater than 50 µg/mL; with P. aeruginosa PAO1 (P. aeruginosa PAO1), 12.5 µg/mL (≈ 34.3 µM); against E. coli W3110PA, 12.5 µg/mL (≈ 34.3 µM). Besides, in experiment [2] (2.0 μg per disc), the zone of inhibition at 2 µg/disc came out at 22 mm.
Turning to `Cc1ccc(-c2ccc(CN[C@H](C(=O)NO)[C@](C)(O)C(F)F)s2)s1` [Example 7, (2S,3S)-4,4-difluoro-N,3-dihydroxy-3-methyl-2-((5′-methyl-2,2′-bithiophen-5-yl)methylamino)butanamide], the figures for the MIC with E. coli W3110 and against E. coli W3110PA were 50 µg/mL (≈ 133 µM) and 25 µg/mL (≈ 66.4 µM), respectively. The zone of inhibition at 2 µg/disc in experiment [2] (2.0 μg per disc) was found to be 21 mm.
Take `C[C@@](O)(C(F)F)[C@H](NCc1ccc(-c2cccs2)s1)C(=O)NO` [Example 8, (2S,3S)-2-(2,2′-bithiophen-5-ylmethylamino)-4,4-difluoro-N,3-dihydroxy-3-methylbutanamide]: the MIC in the experiment on E. coli W3110 and in the experiment with E. coli W3110PA was 25 µg/mL (≈ 69 µM) throughout. Also, the zone of inhibition at 2 µg/disc in experiment [2] (2.0 μg per disc) worked out at 19 mm.
Consider `CC(NCCc1ccc(-c2ccccc2)cc1)(C(=O)NO)C(C)(O)C(F)F` (stereo not shown) [Example 12, 2-(2-(biphenyl-4-yl)ethylamino)-4,4-difluoro-N,3-dihydroxy-2,3-dimethylbutanamide], for which the MIC is greater than 40 µg/mL against E. coli W3110 and greater than 40 µg/mL against P. aeruginosa PAO1 (PAO1, P. aeruginosa PAO1). The zone of inhibition at 2 µg/disc in experiment [2] (2.0 μg per disc) is less than 19 mm.
Take `CC(CCc1ccc(-c2ccccc2)cc1)(C(=O)NO)S(C)(=O)=O` (stereo not shown) [Example 133]: the MIC worked out at 3.13 µg/mL (≈ 9.01 µM) in the experiment on E. coli W3110; 0.39 µg/mL (≈ 1.12 µM) with P. aeruginosa PAO1 (PAO1, P. aeruginosa PAO1); 3.13 µg/mL (≈ 9.01 µM) in experiment [4]; 0.38 µg/mL (≈ 1.09 µM) in the experiment with E. coli W3110PA.
